According to PubChem BioAssay (NCI):
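Each compound was tested at five concentrations against cells in 96-well plates for 48 hours. Abbreviation: GI50, concentration required for 50% inhibition of growth. TGI marks complete inhibition of growth.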

Columns and labels:
Test in all cases: NCI-60 cell line screen, 48 h
[1] = tested on: NCI-H23 lung
[2] = tested on: RXF 393 renal
[3] = tested on: SK-MEL-2 melanoma
[4] = tested on: K-562 leukemia
[5] = tested on: U251 CNS
[6] = tested on: NCI-H226 lung
[7] = tested on: CCRF-CEM leukemia
[8] = tested on: UO-31 renal
[9] = tested on: MCF7 breast
[10] = tested on: HS 578T breast

Structure (SMILES) | TGI [1] [µM] | TGI [2] [µM] | TGI [3] [µM] | TGI [4] [µM] | TGI [5] [µM] | TGI [6] [µM] | TGI [7] [µM] | TGI [8] [µM] | GI50 [1] [µM] | GI50 [2] [µM] | GI50 [3] [µM] | GI50 [4] [µM] | GI50 [5] [µM] | GI50 [6] [µM] | GI50 [8] [µM] | GI50 [9] [µM] | TGI [9] [µM] | GI50 [10] [µM] | TGI [10] [µM] | GI50 [7] [µM]
CCOc1ccc(NCC2CC/C(=C\c3ccccc3OC)C2=O)cc1 (stereo not given) | 34.7 | 21.4 | 35.2 | > 27.5 | 27.8 | 34.1 | 7.22 | 26.2 |  |  |  |  |  |  |  |  |  |  |  | 
Cc1cccc(C)c1N1C(=O)C(=O)C(c2nc3ccccc3s2)/C(=N/NC(=O)c2ccccc2O)C1=O (stereo not given) | 39.1 | 17.2 | > 100 | > 57 | > 100 | 56.5 | > 65.3 | 22.4 |  |  |  |  |  |  |  |  |  |  |  | 
O=C(CI)Nc1ccc(O)c2ccccc12 | 3.69 | 1.97 | 9.22 | > 100 | 3.11 | 5.61 |  | 2.01 | 1.67 | 0.742 | 2.93 | 0.328 | 1.57 | 1.67 | 0.647 | 0.766 | 2.35 | 2.45 | 8.49 | 
C=C1C(=O)O[C@H]2[C@H]1CC/C(Cn1cc(-c3ccc(F)cc3)nn1)=C\CC[C@@]1(C)O[C@@H]21 | 3.71 | 2.13 | 3.94 | 4.84 | 4.43 | 6.74 | 0.75 | 2.51 | 1.78 | 0.874 | 1.83 | 0.948 | 2.02 | 2.48 | 1.22 |  |  | 3.68 | 22.6 | 0.247
Nc1ccc(COC(O)CN2CCCCC2)cc1[N+](=O)[O-] (stereo not given) | > 100 | > 100 | > 100 | > 100 | > 100 | > 100 | > 100 | > 100 |  |  |  |  |  |  |  |  | > 100 |  |  | 
Cc1ccc(S(=O)(=O)c2ccc(C)cc2[N+](=O)[O-])cc1 | > 100 | > 100 | > 100 | > 100 | > 100 | > 100 | > 100 | > 100 |  |  |  |  |  |  |  |  |  |  |  | 
CC(C(=O)c1ccccc1)C1(O)C(=O)Nc2ccc(Cl)cc21 (stereo not given) | > 100 | > 100 | > 100 |  | > 100 | > 100 |  | 89.7 |  |  |  |  |  |  |  |  |  |  |  | 
Cc1c(Cl)cccc1NC(=O)/C=C/c1ccccc1 | > 100 |  | > 100 | > 100 | > 100 | > 100 | > 100 |  |  |  |  |  |  |  |  |  | > 100 |  | > 100 | 
CC1=NOC(=O)/C1=C/c1ccc([N+](=O)[O-])cc1 | > 100 | > 100 | > 100 | > 100 | > 100 | > 100 | > 100 | > 100 |  |  |  |  |  |  |  |  |  |  |  | 
C=CCC1(C(=O)OC(C)(C)C)C(OC)=C(C(=O)OC(C)(C)C)C2C1C(C(=O)OC(C)(C)C)=C(OC)C2(CC=C)C(=O)OC(C)(C)C (stereo not given) | > 100 | > 100 | > 100 | > 100 |  | > 100 | > 100 | > 100 |  |  |  |  |  |  |  |  |  |  |  | 
CC1CC(C)C2OC2(C)C[C@H](C)C(=O)NC(C)C(=O)N(C)[C@H](Cc2c(Br)[nH]c3ccccc23)C(=O)N[C@@H](c2ccc(O)cc2)CC(=O)O1 (stereo not given in full) | > 40.4 | 4.81 | 0.876 | > 77.4 | 2.98 | 2.23 | > 65 | 27.3 |  |  |  |  |  |  |  |  |  |  |  | 
Cc1ccc(S(=O)(=O)OC(COC(=O)c2ccccc2)C(OS(=O)(=O)c2ccc(C)cc2)C(OS(=O)(=O)c2ccc(C)cc2)C(COC(=O)c2ccccc2)OS(=O)(=O)c2ccc(C)cc2)cc1 (stereo not given) | > 100 | > 100 | > 100 | > 100 | > 100 |  | > 100 | > 100 |  |  |  |  |  |  |  |  |  |  |  | 
Cc1nc(N)nc(N)c1CCCc1ccccc1 | > 100 |  | > 100 | > 100 | > 100 | > 100 | > 100 | > 100 |  |  |  |  |  |  |  |  |  |  |  | 
C1CN(P2(N3CC3)=NP(N3CC3)(N3CC3)=NP(N3CC3)(N3CC3)=N2)CCO1 (stereo not given) | > 100 | > 100 | > 100 | > 100 | > 100 | > 100 | > 100 | > 100 |  |  |  |  |  |  |  |  |  |  |  | 
Cc1cc(C)c(C(=O)O)c(SSc2cc(C)cc(C)c2C(=O)O)c1 | > 100 | > 100 | > 100 | > 100 | > 100 | > 100 | > 100 | > 100 |  |  |  |  |  |  |  |  |  |  |  | 
CCCCc1c2cnccc2c(CCCC)c2c1[nH]c1ccccc12 | 36.2 | 24.9 | 30.5 | 19.9 | 27 | 34 | 99 | 29.8 |  |  |  |  |  |  |  |  |  |  |  | 
NCCNC(=O)c1cccc2cc3ccccc3nc12 | 10.6 | 10.2 | 7.81 | 6.16 | 9.04 | 3.61 |  | > 28.5 |  |  |  |  |  |  |  |  |  |  |  | 
Cc1ccc2nc3cc(C)c(=O)cc-3sc2c1 | > 100 |  | > 100 | > 100 | > 100 | > 100 | 45.2 | > 100 |  |  |  |  |  |  |  |  |  |  |  | 
CCCCCC[C@@H](C)NC(=O)c1ccc(Nc2nc3ccccc3c3occc23)cc1 | 6.59 | 9.84 | 7.23 | > 100 | > 100 |  | 15.4 | 21 | 2.06 | 3.41 | 2.51 | 4.82 | 38.8 |  | 2.87 | 7.58 | > 100 | 3.79 | > 100 | 3.89
C=C1C(=O)O[C@H]2[C@H]1CC/C(COC(=O)OC/C1=C/CC[C@@]3(C)O[C@H]3[C@H]3OC(=O)[C@@H](CN(C)C)[C@@H]3CC1)=C\CC[C@@]1(C)O[C@@H]21 | 10.2 | 1.35 | 5.88 |  | 12.5 | 10 | 0.733 | 2.25 | 2.86 | 0.306 | 2.27 |  | 3.3 | 2.65 | 1.04 |  |  | 4.39 | 26.9 | 0.247
COc1ccc2c(c1OC)C(C(Cl)(Cl)Cl)N1CCc3cc4c(cc3C1=C2)OCO4 (stereo not given) | > 100 |  | 39.4 |  | 43.1 | 70.1 | 62.2 | > 100 |  |  |  |  |  |  |  |  | > 100 |  | > 100 | 
